Data as given in US10077277B2, “Bicyclic heteroarylaminoalkyl phenyl derivatives as PI3K inhibitors” (Incyte Corporation, priority 2014, dated 2018).

How the values were obtained:
[1] = biological target: human JAK1 (Homo sapiens, UniProt P23458); assay: In vitro JAK kinase assay (Example J), JAK1; format: biochemical; settings: Assay J at 1 mM ATP
[2] = biological target: human JAK2 (Homo sapiens (Human), UniProt O60674); assay: In vitro JAK kinase assay (Example J), JAK2; format: biochemical; settings: ratio of IC50s, Assay J at 1 mM ATP
Sequence of human JAK2 (O60674 828-1132): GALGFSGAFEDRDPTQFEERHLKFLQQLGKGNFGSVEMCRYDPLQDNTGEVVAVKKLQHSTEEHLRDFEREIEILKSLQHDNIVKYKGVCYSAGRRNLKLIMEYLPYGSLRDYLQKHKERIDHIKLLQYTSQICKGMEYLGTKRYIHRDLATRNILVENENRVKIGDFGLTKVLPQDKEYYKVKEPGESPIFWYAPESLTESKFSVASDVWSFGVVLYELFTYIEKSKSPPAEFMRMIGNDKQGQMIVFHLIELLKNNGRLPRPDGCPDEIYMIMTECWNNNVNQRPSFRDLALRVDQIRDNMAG

| SMILES | IC50 [1] [nM] | JAK2/JAK1 [2] |
| --- | --- | --- |
| CCNCc1cc(O[C@H]2CC[C@@H](N3CC(CC#N)(n4cc(-c5ncnc6[nH]ccc56)cn4)C3)CC2)nc(C(F)(F)F)c1 [Example 19, {1-(cis-4-{[4-[(ethylamino)methyl]-6-(trifluoromethyl)pyridin-2-yl]oxy}cyclohexyl)-3-[4-(7H-pyrrolo[2,3-d]pyrimidin-4-yl)-1H-pyrazol-1-yl]azetidin-3-yl}acetonitrile] | < 10 | >10 |
| N#CC[C@]1(n2cc(-c3ncnc4[nH]ccc34)cn2)C[C@H](N2CCC(Oc3cc(CN4CCC[C@@H]4CO)cc(C(F)(F)F)n3)CC2)C1 [Example 13] | < 10 | >10 |
| N#CCC1(n2cc(-c3ncnc4[nH]ccc34)cn2)CN([C@H]2CC[C@@H](Oc3cc(CCO)nc(C(F)(F)F)n3)CC2)C1 [Example 18, {1-(cis-4-{[6-(2-hydroxyethyl)-2-(trifluoromethyl)pyrimidin-4-yl]oxy}cyclohexyl)-3-[4-(7H-pyrrolo[2,3-d]pyrimidin-4-yl)-1H-pyrazol-1-yl]azetidin-3-yl}acetonitrile] | < 10 | >10 |
| N#CC[C@]1(n2cc(-c3ncnc4[nH]ccc34)cn2)C[C@H](N2CCN(C(=O)c3ccnc(C(F)(F)F)n3)CC2)C1 [Example 10] | < 10 | >10 |
| N#CCC1(n2cc(-c3ncnc4[nH]ccc34)cn2)CN(C2CCN(C(=O)Nc3ccc(F)cc3C(F)(F)F)CC2)C1 [Example 8, 4-{3-(Cyanomethyl)-3-[4-(7H-pyrrolo[2,3-d]pyrimidin-4-yl)-1H-pyrazol-1-yl]azetidin-1-yl}-N-[4-fluoro-2-(trifluoromethyl)phenyl]piperidine-1-carboxamide] | < 10 | >10 |
| N#CC[C@]1(n2cc(-c3ncnc4[nH]ccc34)cn2)C[C@H](N2CCC(Oc3cc(CN4CC(O)C4)cc(C(F)(F)F)n3)CC2)C1 [Example 11] | < 10 | >10 |
| C[C@H](O)CNCc1cc(OC2CCN([C@H]3C[C@](CC#N)(n4cc(-c5ncnc6[nH]ccc56)cn4)C3)CC2)nc(C(F)(F)F)c1 [Example 25] | < 10 | >10 |
| N#CCC1(n2cc(-c3ncnc4[nH]ccc34)cn2)CN(C2CCN(C(=O)c3ccnc(C(F)(F)F)c3F)CC2)C1 [Example 7, {1-{1-[3-Fluoro-2-(trifluoromethyl)isonicotinoyl]piperidin-4-yl}-3-[4-(7H-pyrrolo[2,3-d]pyrimidin-4-yl)-1H-pyrazol-1-yl]azetidin-3-yl}acetonitrile] | < 10 | >10 |
| N#CCC(CN1CCN(C(=O)c2ccc(C#N)cc2F)CC1)n1cc(-c2ncnc3[nH]ccc23)cn1 (stereo not drawn) [Example 6] | – | >10 |
| N#CC[C@]1(n2cc(-c3ncnc4[nH]ccc34)cn2)C[C@H](N2CCC(Oc3cc(CN4CCC[C@H]4CO)cc(C(F)(F)F)n3)CC2)C1 [Example 12] | < 10 | >10 |
| N#CCC(C1CCN(c2cccc(Cl)n2)C1)n1cc(-c2ncnc3[nH]ccc23)cn1 (stereo not drawn) [bis(trifluoroacetate)] | < 10 | >10 |
| C[C@@H](CO)NCc1cc(OC2CCN([C@H]3C[C@](CC#N)(n4cc(-c5ncnc6[nH]ccc56)cn4)C3)CC2)nc(C(F)(F)F)c1 [Example 23] | < 10 | >10 |
| N#CCC1(n2cc(-c3ncnc4[nH]ccc34)cn2)CN([C@H]2CC[C@@H](Oc3cc(CN4CC[C@@H](O)C4)cc(C(F)(F)F)n3)CC2)C1 [Example 21] | < 10 | >10 |
| CC(C)(O)c1cc(O[C@H]2CC[C@@H](N3CC(CC#N)(n4cc(-c5ncnc6[nH]ccc56)cn4)C3)CC2)nc(C(F)(F)F)c1 [Example 20, {1-(cis-4-{[4-(1-hydroxy-1-methylethyl)-6-(trifluoromethyl)pyridin-2-yl]oxy}cyclohexyl)-3-[4-(7H-pyrrolo[2,3-d]pyrimidin-4-yl)-1H-pyrazol-1-yl]azetidin-3-yl}acetonitrile] | < 10 | >10 |
